Results reported in patent US20260262643A1, “HERBICIDAL BENZOXAZINES” (FMC CORPORATION, priority 2022, published 2026).

Assays:
soybean [1] = experiment: Test C postemergence; format: in vivo, Glycine max; conditions: 10 days
Summary of the method: (§1)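 Greenhouse herbicide screen, 10-day duration. Test chemicals in solvent/surfactant blend were sprayed onto soil at sowing (pre) or onto 2–10 cm seedlings at one to two leaves (post); injury scored visually against controls, 0 no effect to 100 complete control.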

ryegrass, Italian [2] = experiment: Test C postemergence; format: in vivo, Lolium multiflorum; conditions: 10 days
Summary of the method: as §1

corn [3] = experiment: Test C preemergence; format: in vivo, Zea mays; conditions: 0 to 100 scale (0 no effect, 100 complete control); for Plant response rating, Corn: Preemergence, 500 g ai/ha, visual rating after 10 days; for Corn plant response rating: Test C, preemergence, 125 g ai/ha
Summary of the method: as §1

soybean [4] = experiment: Test C preemergence; format: in vivo, Glycine max; conditions: 0 to 100 scale (0 no effect, 100 complete control); for Plant response rating, Soybean: Preemergence, 500 g ai/ha, visual rating after 10 days; for Soybean plant response rating: Test C, preemergence, 125 g ai/ha
Summary of the method: as §1

wheat [5] = experiment: Test C preemergence; format: in vivo, Triticum aestivum; conditions: 0 to 100 scale (0 no effect, 100 complete control); for Plant response rating, Wheat: Preemergence, 500 g ai/ha, visual rating after 10 days; for Wheat plant response rating: Test C, preemergence, 125 g ai/ha
Summary of the method: as §1

ryegrass, Italian [6] = experiment: Test C preemergence; format: in vivo, Lolium multiflorum; conditions: 0 to 100 scale (0 no effect, 100 complete control); for Plant response rating, Ryegrass, Italian: Preemergence, 500 g ai/ha, visual rating after 10 days; for Ryegrass, Italian plant response rating: Test C, preemergence, 125 g ai/ha
Summary of the method: as §1

pigweed, palmer [7] = experiment: Test C postemergence; format: in vivo, Amaranthus palmeri; conditions: 10 days
Summary of the method: as §1

barnyardgrass [8] = experiment: Test D flooded paddy test; format: in vivo, Echinochloa crus-galli; conditions: 250 g ai/ha, applied to paddy water, visual rating after 13 to 14 days, scale 0 to 100 (0 no effect, 100 complete control)
Method: (§2) Plant species in the flooded paddy test selected from barnyardgrass (Echinochloa crus-galli), ducksalad (Heteranthera limosa), rice (Oryza sativa), and sedge, umbrella (small-flower umbrella sedge, Cyperus difformis) were grown to the 2-leaf stage for testing. At time of treatment, test pots were flooded to 3 cm above the soil surface, treated by application of test compounds directly to the paddy water, and then maintained at that water depth for the duration of the test. Treated plants and controls were maintained in a greenhouse for 13 to 14 days, after which time all species were compared to controls and visually evaluated. Plant response ratings, summarized in Table D, are based on a scale of 0 to 100 where 0 is no effect and 100 is complete control. A dash (-) response means no test result.

barnyardgrass [9] = experiment: Test C preemergence; format: in vivo, Echinochloa crusgalli; conditions: 0 to 100 scale (0 no effect, 100 complete control); for Plant response rating, Barnyardgrass: Preemergence, 500 g ai/ha, visual rating after 10 days; for Barnyardgrass plant response rating: Test C, preemergence, 125 g ai/ha
Summary of the method: as §1

wheat [10] = experiment: Test C postemergence; format: in vivo, Triticum aestivum; conditions: 10 days
Summary of the method: as §1

oat, wild [11] = experiment: Test C preemergence; format: in vivo, Avena fatua; conditions: 0 to 100 scale (0 no effect, 100 complete control); for Plant response rating, Oat, Wild: Preemergence, 500 g ai/ha, visual rating after 10 days; for Oat, Wild plant response rating: Test C, preemergence, 125 g ai/ha
Summary of the method: as §1

blackgrass [12] = experiment: Test C preemergence; format: in vivo, Alopecurus myosuroides; conditions: 0 to 100 scale (0 no effect, 100 complete control); for Plant response rating, Blackgrass: Preemergence, 500 g ai/ha, visual rating after 10 days; for Blackgrass plant response rating: Test C, preemergence, 125 g ai/ha
Summary of the method: as §1

barnyardgrass [13] = experiment: Test C postemergence; format: in vivo, Echinochloa crusgalli; conditions: 10 days
Summary of the method: as §1

blackgrass [14] = experiment: Test C postemergence; format: in vivo, Alopecurus myosuroides; conditions: 10 days
Summary of the method: as §1

ragweed [15] = experiment: Test C preemergence; format: in vivo, Ambrosia artemisiifolia; conditions: 0 to 100 scale (0 no effect, 100 complete control); for Plant response rating, Ragweed: Preemergence, 500 g ai/ha, visual rating after 10 days; for Ragweed plant response rating: Test C, preemergence, 125 g ai/ha
Summary of the method: as §1

kochia [16] = experiment: Test C postemergence; format: in vivo, Bassia scoparia; conditions: 10 days
Summary of the method: as §1

kochia [17] = experiment: Test C preemergence; format: in vivo, Bassia scoparia; conditions: 0 to 100 scale (0 no effect, 100 complete control); for Plant response rating, Kochia: Preemergence, 500 g ai/ha, visual rating after 10 days; for Kochia plant response rating: Test C, preemergence, 125 g ai/ha
Summary of the method: as §1

ducksalad = experiment: Test D flooded paddy test; format: in vivo, Heteranthera limosa; conditions: 250 g ai/ha, applied to paddy water, visual rating after 13 to 14 days, scale 0 to 100 (0 no effect, 100 complete control)
Method: as §2

horseweed = experiment: Test C postemergence; format: in vivo, Erigeron canadensis; conditions: 10 days
Summary of the method: as §1

green foxtail = experiment: Test C preemergence; format: in vivo, Setaria viridis; conditions: 0 to 100 scale (0 no effect, 100 complete control); for Plant response rating, Foxtail, Green: Preemergence, 500 g ai/ha, visual rating after 10 days; for Foxtail, Green plant response rating: Test C, preemergence, 125 g ai/ha
Summary of the method: as §1

pigweed, palmer [18] = experiment: Test C preemergence; format: in vivo, Amaranthus palmeri; conditions: 0 to 100 scale (0 no effect, 100 complete control); for Plant response rating, Pigweed, Palmer: Preemergence, 500 g ai/ha, visual rating after 10 days; for Pigweed, Palmer plant response rating: Test C, preemergence, 125 g ai/ha
Summary of the method: as §1

sedge, umbrella = experiment: Test D flooded paddy test; format: in vivo, Cyperus difformis; conditions: 250 g ai/ha, applied to paddy water, visual rating after 13 to 14 days, scale 0 to 100 (0 no effect, 100 complete control)
Method: as §2

galium = experiment: Test C postemergence; format: in vivo, Galium aparine; conditions: 10 days
Summary of the method: as §1

corn [19] = experiment: Test C postemergence; format: in vivo, Zea mays; conditions: 10 days
Summary of the method: as §1

ragweed [20] = experiment: Test C postemergence; format: in vivo, Ambrosia artemisiifolia; conditions: 10 days
Summary of the method: as §1

rice = experiment: Test D flooded paddy test; format: in vivo, Oryza sativa; conditions: 250 g ai/ha, applied to paddy water, visual rating after 13 to 14 days, scale 0 to 100 (0 no effect, 100 complete control)
Method: as §2

oat, wild [21] = experiment: Test C postemergence; format: in vivo, Avena fatua; conditions: 10 days
Summary of the method: as §1

[22] = 125 g ai/ha, postemergence, 0 to 100 scale, 0 no effect, 100 complete control
[23] = Postemergence, 500 g ai/ha, visual 0 to 100 scale (0 no effect, 100 complete control)

With COC[C@H]1CN(C(=O)c2cc(-n3cnc(C4CCC4)n3)ccc2OC)c2cccc(Cl)c2O1 [Compound 236] the “Plant response rating, Soybean” value (soybean [1]; [22]) was 100, the “Plant response rating, Soybean” value (soybean [1]; [23]) was 100 and the “Plant response rating, Ryegrass, Italian” value (ryegrass, Italian [2]; [22]) was 60. The “Plant response rating, Ryegrass, Italian” value (ryegrass, Italian [2]; [23]) was 90, the “Plant response rating, Corn” value (corn [3]) was 0 and the “Corn plant response rating” value (corn [3]) was 0. For the same compound, the “Plant response rating, Soybean” value (soybean [4]) was 70, the “Soybean plant response rating” value (soybean [4]) was 40 and the “Plant response rating, Wheat” value (wheat [5]) was 10. For the same compound, the “Wheat plant response rating” value (wheat [5]) was 0, the “Plant response rating, Ryegrass, Italian” value (ryegrass, Italian [6]) was 50 and the “Ryegrass, Italian plant response rating” value (ryegrass, Italian [6]) was 50. For the same compound, the “Plant response rating, Pigweed, Palmer” value (pigweed, palmer [7]; [22]) was 90, the “Plant response rating, Pigweed, Palmer” value (pigweed, palmer [7]; [23]) was 90 and the “Plant response rating, Barnyardgrass (Flood)” value (barnyardgrass [8]) was 0. The “Plant response rating, Barnyardgrass” value (barnyardgrass [9]) was 80, the “Barnyardgrass plant response rating” value (barnyardgrass [9]) was 20 and the “Plant response rating, Wheat” value (wheat [10]; [22]) was 20. For the same compound, the “Plant response rating, Wheat” value (wheat [10]; [23]) was 30, the “Plant response rating, Oat, Wild” value (oat, wild [11]) was 30 and the “Oat, Wild plant response rating” value (oat, wild [11]) was 10. For the same compound, the “Plant response rating, Blackgrass” value (blackgrass [12]) was 10, the “Blackgrass plant response rating” value (blackgrass [12]) was 0 and the “Plant response rating, Barnyardgrass” value (barnyardgrass [13]; [22]) was 40. The “Plant response rating, Barnyardgrass” value (barnyardgrass [13]; [23]) was 90, the “Plant response rating, Blackgrass” value (blackgrass [14]; [22]) was 20 and the “Plant response rating, Blackgrass” value (blackgrass [14]; [23]) was 90. The “Plant response rating, Ragweed” value (ragweed [15]) was 80, the “Ragweed plant response rating” value (ragweed [15]) was 20 and the “Plant response rating, Kochia” value (kochia [16]; [22]) was 90. The “Plant response rating, Kochia” value (kochia [16]; [23]) was 90, the “Plant response rating, Kochia” value (kochia [17]) was 90 and the “Kochia plant response rating” value (kochia [17]) was 40. For the same compound, the “Plant response rating, Ducksalad (Flood)” value (ducksalad) was 75, the “Plant response rating, Horseweed” value (horseweed; [22]) was 70 and the “Plant response rating, Horseweed” value (horseweed; [23]) was 70. For the same compound, the “Plant response rating, Foxtail, Green” value (green foxtail) was 100, the “Foxtail, Green plant response rating” value (green foxtail) was 90 and the “Plant response rating, Pigweed, Palmer” value (pigweed, palmer [18]) was 100. For the same compound, the “Pigweed, Palmer plant response rating” value (pigweed, palmer [18]) was 80, the “Plant response rating, Sedge, Umbrella (Flood)” value (sedge, umbrella) was 95 and the “Plant response rating, Galium” value (galium; [22]) was 100. The “Plant response rating, Galium” value (galium; [23]) was 100, the “Plant response rating, Corn” value (corn [19]; [22]) was 30 and the “Plant response rating, Corn” value (corn [19]; [23]) was 80. For the same compound, the “Plant response rating, Ragweed” value (ragweed [20]; [22]) was 80, the “Plant response rating, Ragweed” value (ragweed [20]; [23]) was 90 and the “Plant response rating, Rice (Flood)” value (rice) was 0. The “Plant response rating, Oat, Wild” value (oat, wild [21]; [22]) was 10 and the “Plant response rating, Oat, Wild” value (oat, wild [21]; [23]) was 40.

COC[C@H]1CN(C(=O)c2cc(-n3cnc(C4CC4)n3)ccc2OC)c2cccc(Cl)c2O1 [Compound 235] was tested, and the “Plant response rating, Soybean” value (soybean [1]; [22]) was 100, the “Plant response rating, Soybean” value (soybean [1]; [23]) was 100 and the “Plant response rating, Ryegrass, Italian” value (ryegrass, Italian [2]; [22]) was 70. The “Plant response rating, Ryegrass, Italian” value (ryegrass, Italian [2]; [23]) was 100, the “Plant response rating, Corn” value (corn [3]) was 0 and the “Corn plant response rating” value (corn [3]) was 20. The “Plant response rating, Soybean” value (soybean [4]) was 70, the “Soybean plant response rating” value (soybean [4]) was 60 and the “Plant response rating, Wheat” value (wheat [5]) was 30. For the same compound, the “Wheat plant response rating” value (wheat [5]) was 30, the “Plant response rating, Ryegrass, Italian” value (ryegrass, Italian [6]) was 90 and the “Ryegrass, Italian plant response rating” value (ryegrass, Italian [6]) was 80. The “Plant response rating, Pigweed, Palmer” value (pigweed, palmer [7]; [22]) was 70, the “Plant response rating, Pigweed, Palmer” value (pigweed, palmer [7]; [23]) was 90 and the “Plant response rating, Barnyardgrass (Flood)” value (barnyardgrass [8]) was 10. For the same compound, the “Plant response rating, Barnyardgrass” value (barnyardgrass [9]) was 90, the “Barnyardgrass plant response rating” value (barnyardgrass [9]) was 50 and the “Plant response rating, Wheat” value (wheat [10]; [22]) was 30. For the same compound, the “Plant response rating, Wheat” value (wheat [10]; [23]) was 30, the “Plant response rating, Oat, Wild” value (oat, wild [11]) was 80 and the “Oat, Wild plant response rating” value (oat, wild [11]) was 20. The “Plant response rating, Blackgrass” value (blackgrass [12]) was 80, the “Blackgrass plant response rating” value (blackgrass [12]) was 50 and the “Plant response rating, Barnyardgrass” value (barnyardgrass [13]; [22]) was 90. The “Plant response rating, Barnyardgrass” value (barnyardgrass [13]; [23]) was 90, the “Plant response rating, Blackgrass” value (blackgrass [14]; [22]) was 70 and the “Plant response rating, Blackgrass” value (blackgrass [14]; [23]) was 90. The “Plant response rating, Ragweed” value (ragweed [15]) was 60, the “Ragweed plant response rating” value (ragweed [15]) was 30 and the “Plant response rating, Kochia” value (kochia [16]; [22]) was 90. For the same compound, the “Plant response rating, Kochia” value (kochia [16]; [23]) was 90, the “Plant response rating, Kochia” value (kochia [17]) was 90 and the “Kochia plant response rating” value (kochia [17]) was 80. The “Plant response rating, Ducksalad (Flood)” value (ducksalad) was 90, the “Plant response rating, Horseweed” value (horseweed; [22]) was 30 and the “Plant response rating, Horseweed” value (horseweed; [23]) was 70. For the same compound, the “Plant response rating, Foxtail, Green” value (green foxtail) was 100, the “Foxtail, Green plant response rating” value (green foxtail) was 100 and the “Plant response rating, Pigweed, Palmer” value (pigweed, palmer [18]) was 100. The “Pigweed, Palmer plant response rating” value (pigweed, palmer [18]) was 90, the “Plant response rating, Sedge, Umbrella (Flood)” value (sedge, umbrella) was 90 and the “Plant response rating, Galium” value (galium; [22]) was 100. For the same compound, the “Plant response rating, Galium” value (galium; [23]) was 100, the “Plant response rating, Corn” value (corn [19]; [22]) was 50 and the “Plant response rating, Corn” value (corn [19]; [23]) was 90. For the same compound, the “Plant response rating, Ragweed” value (ragweed [20]; [22]) was 70, the “Plant response rating, Ragweed” value (ragweed [20]; [23]) was 80 and the “Plant response rating, Rice (Flood)” value (rice) was 15. For the same compound, the “Plant response rating, Oat, Wild” value (oat, wild [21]; [22]) was 40 and the “Plant response rating, Oat, Wild” value (oat, wild [21]; [23]) was 60.
